In PubChem BioAssay AID2060889 (Molecular Pharmacology Branch, DTP, NCI, 2025):

Tested on: LG0567-F671-PDC complex spheroids viability
Experiment: Anticancer human tumor LG0567-F671-PDC patient-derived lung adenocarcinoma cell line growth inhibition [RAS]
Settings: for IC50: curve of first compound; for viability, T/C: stronger effect = lower value
Source text: RAS pathway inhibitors in Combinations in Complex Spheroids
A high-throughput screen of multi-cell type tumor spheroids was designed to identify active combinations of RAS pathway inhibitors and targeted small molecules. Complex spheroids include a stromal component modeled by human endothelial cells (HUVEC) and fibroblasts modeled by human mesenchymal stem cells (MSCs). The concentration ranges selected for each drug and investigational agent were based upon clinically achievable concentrations if the clinical Cmax of the agent was known.
Compounds. The drugs and investigational agents: abemaciclib (NSC768073), cobimetinib (NSC768068), divarasib (GDC6063, NSC841802), docetaxel (NSC628503), GDC-1971 (RLY-1971, NSC841576), gemcitabine (NSC613327), inavolisib (NSC800729), ipatasertib (NSC767898), KB-0742 (NSC834161), MRTX-1133 (NSC836407), osimertinib (NSC779217), RMC-4630 (NSC839698), RMC-6236 (NSC851965), RMC-6291 (NSC852671), Ro-3306 (NSC812927), sapanisertib (NSC764658), SN-38 (NSC673596), staurosporine (NSC755774), SY5609 (NSC837396), and tovorafenib (DAY101, NSC766906), were obtained from the National Cancer Institute (NCI) Developmental Therapeutics Program Chemical Repository. The FDA-approved anticancer drug set is available from the NCI Developmental Therapeutics Program. […] The stock solutions were prepared in dimethyl sulfoxide (DMSO, Sigma-Aldrich, St. Louis, MO, cat. D2650) at 800-fold the tested concentration and stored at -70 degrees C prior to their use. All drugs and investigational agents were tested over a range starting from a high concentration at or near the clinical Cmax and decreasing in half-log increments. If the clinical Cmax for an agent had not been determined, the highest concentration tested was 10 microM.
Cell Culture. All cells were maintained in an incubator at 37 degrees C and 5% CO2 with 95% humidity. The PDC lines were cultured according to standard operating procedures established by the NCI PDMR. All PDCs were thawed and cultured in Matrigel-coated flasks prepared with a working solution of 1X Ham's F-12 nutrient mix, without supplementation (Invitrogen, Waltham, MA, cat. 11765054), 100 U/mL penicillin-streptomycin (Invitrogen, cat. 15140122), and 2.5% Matrigel (Corning Inc., Corning, NY, cat. 354248) for the first three passages. The 362531-283-R-J2-PDC and 782815-120-R-J1-PDC lines were cultured in 6C/Colon 1B media, which includes advanced DMEM/F-12 (Thermo Fisher Scientific, cat. 12634028), 10 mM HEPES (Thermo Fisher Scientific, cat. 15630080), 1X GlutaMAX supplement (Thermo Fisher Scientific, cat. 35050061), 0.1 mg/mL primocin (InvivoGen, San Diego, CA, cat. ant-pm-2), 10% defined fetal bovine serum, heat inactivated (HyClone Laboratories Inc., Logan, UT, cat. SH30070.03HI), 50% L-WRN conditioned media (ATCC, cat. CRL-3276), 1.25 mM N-Acetyl-L-cysteine (Sigma-Aldrich, cat. A9165), 10 mM nicotinamide (Sigma-Aldrich, cat. N0636), 1X B-27 supplement (Thermo Fisher Scientific, cat. 17504044), 1X N-2 supplement (Thermo Fisher Scientific, cat. 17502048), 50 ng/mL human EGF (Thermo Fisher Scientific, cat. PHG0311), and 10 microM Y-27632 dihydrochloride (Tocris Bioscience, cat. 1254). The K12877-001-R-J1-PDC line was cultured in 6I media, which includes all 6C/Colon 1B media plus 10 ng/mL human FGF-10 (PeproTech, cat. 100-26), 1 ng/mL human FGF-2 (PeproTech, cat. 100-18B), 1 µM prostaglandin E2 (Tocris Bioscience, cat. 2296), […] hydrocortisone (Sigma-Aldrich, cat. H4001), and […] bovine insulin (Sigma-Aldrich, cat. I6634). The K86415-001-R-J1-PDC line was cultured in 6D media, which includes all 6C/Colon 1B media components minus the L-WRN conditioned media. The 485176-168-R4-J1-PDC was cultured in PANC media, which includes all 6C/Colon 1B media plus 100 ng/mL human FGF-10 (PeproTech, cat. 100-26), 500 nM SB-431542 (Selleckchem, cat. S1067), and 10 nM gastrin (Tocris Bioscience, cat. 3006). […]
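Further: spheroids exposed to compound for seven days before readout.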
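Wherever IC50 is given: luminescence signal used as a proxy for viable cells.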

SMILES: CC(=O)OC12COC1CC(O)C1(C)C(=O)C(O)C3=C(C)C(OC(=O)C(O)C(NC(=O)OC(C)(C)C)c4ccccc4)CC(O)(C(OC(=O)c4ccccc4)C21)C3(C)C (configuration not stated) + CCn1c(-c2cc(N3CCN(C)CC3)cnc2C(C)OC)c2c3cc(ccc31)-c1csc(n1)CC(NC(=O)C1CC1C)C(=O)N1CCCC(N1)C(=O)OCC(C)(C)C2
- IC50 (second compound 0.000949 µM): < 31.6 nM
- IC50 (second compound 0.003 µM): < 31.6 nM
- IC50 (second compound 0.00949 µM): < 31.6 nM
- IC50 (second compound 0.03 µM): < 31.6 nM
- IC50 (second compound 0.0949 µM): < 31.6 nM
- IC50 (second compound 0.3 µM): < 31.6 nM
- viability, T/C (second compound 0.000949 µM, first compound 0.0316 µM): 17.3%
- viability, T/C (second compound 0.000949 µM, first compound 0.1 µM): 14.6%
- viability, T/C (second compound 0.000949 µM, first compound 0.316 µM): 16.6%
- viability, T/C (second compound 0.000949 µM, first compound 1 µM): 20.3%
- viability, T/C (second compound 0.000949 µM, first compound 3.16 µM): 21.7%
- viability, T/C (second compound 0.000949 µM, first compound 10 µM): 15.3%
- viability, T/C (second compound 0.003 µM, first compound 0.0316 µM): 8.54%
- viability, T/C (second compound 0.003 µM, first compound 0.1 µM): 7.86%
- viability, T/C (second compound 0.003 µM, first compound 0.316 µM): 8.72%
- viability, T/C (second compound 0.003 µM, first compound 1 µM): 8.18%
- viability, T/C (second compound 0.003 µM, first compound 3.16 µM): 8.46%
- viability, T/C (second compound 0.003 µM, first compound 10 µM): 5.71%
- viability, T/C (second compound 0.00949 µM, first compound 0.0316 µM): 5.57%
- viability, T/C (second compound 0.00949 µM, first compound 0.1 µM): 4.28%
- viability, T/C (second compound 0.00949 µM, first compound 0.316 µM): 4.95%
- viability, T/C (second compound 0.00949 µM, first compound 1 µM): 3.96%
- viability, T/C (second compound 0.00949 µM, first compound 3.16 µM): 4.72%
- viability, T/C (second compound 0.00949 µM, first compound 10 µM): 3.03%
- viability, T/C (second compound 0.03 µM, first compound 0.0316 µM): 3.18%
- viability, T/C (second compound 0.03 µM, first compound 0.1 µM): 3.69%
- viability, T/C (second compound 0.03 µM, first compound 0.316 µM): 3.02%
- viability, T/C (second compound 0.03 µM, first compound 1 µM): 3.03%
- viability, T/C (second compound 0.03 µM, first compound 3.16 µM): 2.9%
- viability, T/C (second compound 0.03 µM, first compound 10 µM): 1.92%
- viability, T/C (second compound 0.0949 µM, first compound 0.0316 µM): 2.46%
- viability, T/C (second compound 0.0949 µM, first compound 0.1 µM): 2.37%
- viability, T/C (second compound 0.0949 µM, first compound 0.316 µM): 2.22%
- viability, T/C (second compound 0.0949 µM, first compound 1 µM): 2.27%
- viability, T/C (second compound 0.0949 µM, first compound 3.16 µM): 2.34%
- viability, T/C (second compound 0.0949 µM, first compound 10 µM): 1.6%
- viability, T/C (second compound 0.3 µM, first compound 0.0316 µM): 2.92%
- viability, T/C (second compound 0.3 µM, first compound 0.1 µM): 1.92%
- viability, T/C (second compound 0.3 µM, first compound 0.316 µM): 1.85%
- viability, T/C (second compound 0.3 µM, first compound 1 µM): 1.89%
- viability, T/C (second compound 0.3 µM, first compound 3.16 µM): 2.06%
- viability, T/C (second compound 0.3 µM, first compound 10 µM): 1.66%
